Among the data in PubChem BioAssay AID1645864 (Buhrlage Lab, Dana-Farber Cancer Institute and Novartis …, 2021) are IC50 values, retold here.

The IC50 is the concentration that gives 50% inhibition.

Activity calls are given as the source filed them.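 The calls were made as follows: active = maximal inhibition of USP17 at or above 30% in the confirmation dose-response, a value not among the printed readouts; inactive = the rest.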

In the assay the target is Ubiquitin carboxyl-terminal hydrolase 17-like protein 5 (Homo sapiens) (UniProt A8MUK1). In words: ubiquitin-specific protease 17 inhibitors, concentration series, biochemical, verification of primary actives (AID 1645864). As to conditions: purified USP17, ubiquitin-rhodamine cleavage fluorescence, 3 h.
Ubiquitin carboxyl-terminal hydrolase 17-like protein 5 (Homo sapiens), sequence (A8MUK1 whole entry, looked up): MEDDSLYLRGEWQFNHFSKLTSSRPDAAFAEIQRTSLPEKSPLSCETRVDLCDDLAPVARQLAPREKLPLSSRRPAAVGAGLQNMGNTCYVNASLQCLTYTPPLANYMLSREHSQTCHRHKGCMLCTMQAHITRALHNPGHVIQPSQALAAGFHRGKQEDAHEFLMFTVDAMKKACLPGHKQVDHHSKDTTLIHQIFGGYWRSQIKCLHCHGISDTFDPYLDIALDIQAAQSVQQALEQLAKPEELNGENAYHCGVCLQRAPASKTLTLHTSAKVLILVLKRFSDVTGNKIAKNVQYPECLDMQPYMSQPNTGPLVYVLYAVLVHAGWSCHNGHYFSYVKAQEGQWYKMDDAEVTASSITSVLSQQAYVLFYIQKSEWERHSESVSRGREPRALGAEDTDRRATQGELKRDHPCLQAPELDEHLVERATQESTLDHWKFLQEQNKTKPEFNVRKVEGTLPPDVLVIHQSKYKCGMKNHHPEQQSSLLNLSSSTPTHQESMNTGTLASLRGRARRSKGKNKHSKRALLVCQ
Consider `Cc1sc2nc(CN3CCCC3)nc(NCCc3ccc(Cl)cc3)c2c1C`, for which the IC50 is > 50 µM (inactive).

For the molecule `CCOC(=O)c1cnn(-c2ccc(C(=O)Nc3ccc(C)c(Cl)c3)cc2)c1N`, the concentration for half-maximal inhibition (IC50) is 2.35 µM.

Regarding `CCCN1C=NS(=O)(=O)c2cc(C(=O)Nc3ccc(OC)c(Cl)c3)ccc21`, the IC50 is 40.9 µM.

Consider `Cn1cc(CCNC(=O)c2cc3ccccc3[nH]2)c2cccnc21`, for which the IC50 was > 50 µM (inactive).

Regarding `COc1cccc(S(=O)(=O)N2CCn3nc(C(C)(C)C)cc3C2)c1`, the IC50 is 38.5 µM.

Turning to `COc1ccc(CCNc2c(-c3ccccc3O)nc3cnccn23)cc1OC`, the IC50 was > 50 µM (inactive).

Consider `Cc1cc(/C=C2/C(=N)N3C(c4ccccc4)=CSC3=NC2=O)c(C)n1-c1ccc2ccccc2c1`, for which the IC50 was > 50 µM (inactive).

In the case of `Cc1ccc(C(=O)Nc2cc3c4c(c2)CC(=O)N4CCC3)cc1C`, the IC50 is > 50 µM (inactive).

For `O=C(Cn1c(=O)n(Cc2ccc3c(c2)OCO3)c(=O)c2ncccc21)c1ccc(Cl)cc1`, the concentration for half-maximal inhibition (IC50) was 33 µM.

As to `O=C(Nc1cccc(N2CCCC2=O)c1)c1cccc2cccnc12`, the IC50 was 21.9 µM.

`CN1C(=O)c2cc(NC(=O)c3ccccc3Cl)ccc2Oc2ccccc21`: the IC50 is > 50 µM (inactive).

With `COc1cc(C)cc2c1C(=O)c1c(cc(O)c(Cl)c1O)C2=O`, the IC50 was 1.57 µM.

Consider `CN1C(=O)[C@]23CC4=CC=C[C@H](O)[C@H]4N2C(=O)[C@@]1(CO)SS3`, for which the IC50 is > 50 µM (inactive).

Turning to `O=C(COc1cccc2c1CCN(Cc1cccnc1)C2=O)Nc1ccc2c(c1)OCCO2`, the 50% inhibitory concentration (IC50) was 35.2 µM.

Take `N#Cc1ccccc1COC(=O)c1ccc2ccccc2n1`: the IC50 is > 50 µM (inactive).

As to `CC(C)NS(=O)(=O)c1ccc(OCC(=O)N2CCC(Cc3ccccc3)CC2)cc1`, the IC50 is > 50 µM (inactive).

Regarding `O=C1CC(O)C(O)c2cccc(O)c21` (stereo unspecified), the IC50 was 9.86 µM.

In the case of `COc1ccc(-c2nc(SCC(=O)Nc3ccc(Cl)cc3F)n[nH]2)cc1`, the IC50 was 47.5 µM.

Consider `O=C(Nc1cccc(C(F)(F)F)c1)N1CCCn2c(nc3ccccc32)C1`, for which the IC50 was 25 µM.

As to `CCOC(=O)c1cc2c(ccn2C)n1Cc1cccc2ccccc12`, the IC50 is > 50 µM (inactive).

On to `COc1ccc(-c2ccnc(-c3ccc(OCc4cccc(F)c4)cc3)n2)cc1`, for which the IC50 was 37.2 µM.

Turning to `Cc1ccc2nc(N3CCc4ccccc4C3)c3nncn3c2c1`, the IC50 is > 50 µM (inactive).

Consider `CCCc1nc2c(sc3nc4c(cc32)COC(C)(C)C4)c(=O)n1CC(=O)Nc1ccccc1C`, for which the IC50 was 32.2 µM.

Regarding `O=C(COc1ccc(Cl)cc1)NCc1nnc(SCC(=O)NCc2ccc3c(c2)OCO3)o1`, the IC50 is 28.2 µM.

In the case of `O=C(NCc1cccc(NC(=O)C2CC2)c1)Nc1cccc2ccccc12`, the 50% inhibitory concentration (IC50) was 39.7 µM.

With `Fc1cccc(-n2cc(-c3noc(-c4ccc[nH]4)n3)nn2)c1`, the IC50 is 36.4 µM.

With `CCc1ccc(NC(=O)Cc2nnc(-c3ccc4ncccc4c3)o2)cc1`, the IC50 was 35.5 µM.

For the molecule `O=C(Nc1ccccc1-c1nc2ccccc2[nH]1)c1sc2ccccc2c1Cl`, the IC50 is 1.8 µM.

Turning to `Cc1cc2nc(Oc3cccc(Cl)c3)c3ccccc3n2n1`, the IC50 was 1.91 µM.

`CCC1=C(c2ccc(C)cc2)S(=O)(=O)NC1=NCC(=O)NC(C)c1ccccc1` (stereo unspecified): the IC50 is 25.2 µM.

Consider `COc1cccc(NC(=O)Nc2nccn(-c3ccc(F)cc3)c2=O)c1`, for which the IC50 was 13.9 µM.

Turning to `COc1ccc(C(=O)Nc2nc3n(n2)C(c2ccccc2)CC(=O)N3)cc1` (stereo unspecified), the IC50 was 10.2 µM.

As to `COc1ccccc1Nc1ncc(C(=O)NCCc2ccc(Cl)cc2)c2ccccc12`, the IC50 was 4.16 µM.

On to `Cc1cc(C(=O)Nc2ccc3nc(N4CCN(c5ncccn5)CC4)cc(C)c3c2)ccc1[N+](=O)[O-]`, for which the IC50 was 1.68 µM.

As for `CSc1cccc(C(=O)Nc2ccc(-c3nc4ccccc4[nH]3)cc2)c1`, the IC50 is 9.57 µM.

Regarding `CC1OC1C(=O)[C@]1(O)[C@H](C)[C@@H](O)[C@@]23O[C@@]2([C@H](O)c2c(O)cccc2C3=O)[C@H]1O` (stereo partly specified), the IC50 is 17.9 µM.
